pIC50: −log10 of the molar value. The source made the active and inactive calls. The rule behind the calls is not given here.

Sequence of Integrin beta-1 (Homo sapiens) (P05556 whole entry): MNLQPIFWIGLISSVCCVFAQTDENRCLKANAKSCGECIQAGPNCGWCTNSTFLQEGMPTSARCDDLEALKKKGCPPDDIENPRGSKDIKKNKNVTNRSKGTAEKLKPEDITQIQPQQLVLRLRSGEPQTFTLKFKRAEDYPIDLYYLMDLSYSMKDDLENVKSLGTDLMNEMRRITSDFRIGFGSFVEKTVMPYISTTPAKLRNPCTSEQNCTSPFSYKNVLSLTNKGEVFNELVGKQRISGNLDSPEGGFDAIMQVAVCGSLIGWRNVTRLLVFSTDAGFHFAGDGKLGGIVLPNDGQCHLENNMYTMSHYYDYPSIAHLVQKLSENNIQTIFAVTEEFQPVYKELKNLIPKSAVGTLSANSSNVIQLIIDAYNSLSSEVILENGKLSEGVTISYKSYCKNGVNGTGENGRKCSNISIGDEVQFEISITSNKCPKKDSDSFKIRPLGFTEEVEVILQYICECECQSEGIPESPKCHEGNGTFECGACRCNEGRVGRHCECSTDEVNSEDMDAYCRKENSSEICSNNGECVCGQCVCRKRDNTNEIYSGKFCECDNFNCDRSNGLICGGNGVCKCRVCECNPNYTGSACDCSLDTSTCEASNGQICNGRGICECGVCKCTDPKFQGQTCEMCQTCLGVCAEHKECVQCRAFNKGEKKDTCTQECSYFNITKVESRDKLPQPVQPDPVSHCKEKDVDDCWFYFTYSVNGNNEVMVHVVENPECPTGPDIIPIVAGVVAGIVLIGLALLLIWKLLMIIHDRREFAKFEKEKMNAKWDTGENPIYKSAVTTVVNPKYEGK

In the first assay the test system is MDA-MB-231. Briefly: Inhibition of epithelial growth factor-induced cell migration of human MDA-MB-231 cells pre-incubated for 24 hrs by cell invasion assay. The class given is functional, cell-based.
For `C/C=C1/C(=O)C[C@H]2[C@@H]3CC[C@H]4C[C@@H](N(C)C)CC[C@]4(C)[C@H]3CC[C@]12C`, the pIC50 (commonly −log10 of the IC50, conventionally taken in molar units) was 6.06.

For the compound `C[C@@H]([C@H]1CC[C@H]2[C@@H]3CC[C@H]4C[C@@H](NC(=O)c5cccnc5)CC[C@]4(C)[C@H]3CC[C@]12C)N(C)C` [EPIPACHYSAMINE B], the pIC50 was 6.46.

In turn, `CC(C)=CC(=O)N[C@H]1CC[C@@]2(C)[C@@H](CC[C@@H]3[C@@H]2CC[C@]2(C)[C@@H]([C@H](C)N(C)C)CC[C@@H]32)C1` [EPIPACHYSAMINE E] had a pIC50 of 6.39.

`O=c1cc(N2CCOCC2)oc2c(-c3ccccc3)cccc12` [LY-294002]: the pIC50 is 6.42.

Compound `CC(C)[C@@H]1CN([C@H]2CC[C@@]3(C)[C@@H](CC[C@@H]4[C@@H]3CC[C@]3(C)[C@@H]([C@H](C)N(C)C)CC[C@@H]43)C2=O)C1=O` [PACHYSTERMINE A] showed a pIC50 of 6.49.

As for `CC(C)[C@@H]1CN([C@H]2CC[C@@]3(C)[C@@H](CC[C@@H]4[C@@H]3CC[C@]3(C)[C@@H]([C@H](C)N(C)C)CC[C@@H]43)[C@H]2O)C1=O` [PACHYSTERMINE B], the pIC50 is 6.72.

`C[C@@H]([C@H]1CC[C@H]2[C@@H]3CC[C@H]4[C@H](O)[C@@H](O)CC[C@]4(C)[C@H]3CC[C@]12C)N(C)C` [TERMINALINE] had a pIC50 of 6.44.

On to `CC(C)[C@H]1CN([C@H]2CC[C@@]3(C)[C@@H](CC[C@@H]4[C@@H]3CC[C@]3(C)[C@@H]([C@H](C)N(C)C)[C@@H](O)C[C@@H]43)C2=O)C1=O` [TERMINAMINE A], for which the negative logarithm of the IC50 (pIC50) was 6.74.

Turning to `CC(=O)O[C@@H]1C[C@]2(C)[C@@H]([C@H](C)N(C)C)[C@@H](O)C[C@H]2[C@@H]2CC[C@H]3[C@@H](O)[C@@H](N4C[C@H](C(C)C)C4=O)C[C@@H](OC(C)=O)[C@]3(C)[C@H]21` [TERMINAMINE B], the pIC50 was 6.70.

`CC(=O)O[C@@H]1C[C@H](N2C[C@H](C(C)C)C2=O)[C@H](O)[C@@H]2CC[C@@H]3[C@H]([C@H](OC(=O)CC(C)C)C[C@]4(C)[C@@H]([C@H](C)N(C)C)[C@@H](O)C[C@@H]34)[C@@]12C` [TERMINAMINE C] gave a pIC50 of 7.10.

The compound `CC(C)=C1CN([C@@H]2CC[C@@]3(C)[C@@H](CC[C@@H]4[C@@H]3CC[C@]3(C)[C@@H]([C@H](C)N(C)C)[C@@H](O)C[C@@H]43)[C@H]2O)C1=O` [TERMINAMINE D] showed a pIC50 of 6.70.

The compound `CC(C)=C1CN([C@@H]2CC[C@@]3(C)[C@@H](CC[C@@H]4[C@@H]3CC[C@]3(C)[C@@H]([C@H](C)N(C)C)CC[C@@H]43)[C@H]2O)C1=O` [TERMINAMINE E] showed a pIC50 of 7.15.

`C/C=C1\C(=O)C[C@H]2[C@@H]3CC[C@H]4C[C@@H](N(C)C)CC[C@]4(C)[C@H]3CC[C@]12C` [Z-salignone] gave a negative logarithm of the IC50 (pIC50) of 5.76.

The subject of another assay is MDA-MB-231. Briefly: Inhibition of epithelial growth factor-induced cell migration of human MDA-MB-231 cells at 10 uM pre-incubated for 24 hrs by cell invasion assay. It is filed as functional, cell-based.
For the compound `CC(=O)[C@H]1CC[C@H]2[C@@H]3CC[C@H]4C[C@H](N(C)C(=O)C=C(C)C)CC[C@]4(C)[C@H]3CC[C@]12C`, the inhibition result is “inactive”.

For the compound `CC(=O)[C@H]1CC[C@H]2[C@@H]3CC[C@H]4C[C@H](N(C)C(=O)c5ccccc5)CC[C@]4(C)[C@H]3CC[C@]12C`, the inhibition result is “inactive”.

With `CC(=O)[C@H]1CC[C@H]2[C@@H]3CC[C@H]4C[C@]5(CC[C@]4(C)[C@H]3CC[C@]12C)c1ccccc1C(=O)N5C`, the inhibition entry was “inactive”.

The next assay addresses Integrin beta-1 (Homo sapiens) (UniProt P05556). The assay can be described thus: Inhibition of integrin beta1 phosphorylation in human […] cells at 1 to 10 uM incubated for 24 hrs by Western blot. It is filed as cell-based. (In general: Immunoblotting shows a protein as a band on a membrane.)
For the compound `CC(C)[C@H]1CN([C@H]2CC[C@@]3(C)[C@@H](CC[C@@H]4[C@@H]3CC[C@]3(C)[C@@H]([C@H](C)N(C)C)[C@@H](O)C[C@@H]43)C2=O)C1=O` [TERMINAMINE A], the inhibition entry is “Dose-dependent effect”.
